From ChEMBL document CHEMBL3885881, “DrugMatrix”

Organism: Rattus norvegicus
Test: DrugMatrix - Regimen: Daily Repeat
Assay type: toxicity, organism-based, Sprague-Dawley
Design: regimen Daily Repeat, gender Male, age 6-8 weeks
Conditions: in vivo, po, route oral GAVAGE, vehicle 100 % WATER; for ABSOLUTE BASOPHIL / ABSOLUTE EOSINOPHIL / ABSOLUTE LYMPHOCYTE / ABSOLUTE MONOCYTE / ABSOLUTE SEGMENTED NEUTROPHIL / BASOPHIL / EOSINOPHIL / ERYTHROCYTE COUNT / HEMATOCRIT / HEMOGLOBIN / LEUKOCYTE COUNT / LYMPHOCYTE / MEAN CORPUSCULAR HEMOGLOBIN / MEAN CORPUSCULAR HEMOGLOBIN CONCENTRATION / MEAN CORPUSCULAR VOLUME / MONOCYTE / NEUTROPHIL / NUCLEATED RED BLOOD CELLS / PLATELET COUNT: tissue Blood; for ALANINE AMINOTRANSFERASE / ALBUMIN / ALKALINE PHOSPHATASE / ASPARTATE AMINOTRANSFERASE / BLOOD UREA NITROGEN / CARBON DIOXIDE / CHLORIDE / CHOLESTEROL / CREATINE PHOSPHOKINASE / CREATININE / GLUCOSE / LACTATE DEHYDROGENASE / LIPASE / PHOSPHORUS / POTASSIUM / SODIUM / TOTAL BILIRUBIN / TOTAL PROTEIN / URIC ACID: tissue Plasma
[1] = 200 mg/kg, 120 h, dose level Low, time 5 day
[2] = 2000 mg/kg, 72 h, dose level High, time 3 day
[3] = 2000 mg/kg, 120 h, dose level High, time 5 day

Structure (SMILES): CC(O)CO (centres undefined) [PROPYLENE GLYCOL]
- ABSOLUTE BASOPHIL [1]: 0 CELLS/uL
- ABSOLUTE EOSINOPHIL [1]: 0 CELLS/uL
- ABSOLUTE LYMPHOCYTE [1]: 15454 CELLS/uL
- ABSOLUTE MONOCYTE [1]: 284.33 CELLS/uL
- ABSOLUTE SEGMENTED NEUTROPHIL [1]: 1261.67 CELLS/uL
- BASOPHIL [1]: 0%
- EOSINOPHIL [1]: 0%
- ERYTHROCYTE COUNT [1]: 5.7 x10E6/uL
- HEMATOCRIT [1]: 35.5%
- HEMOGLOBIN [1]: 14.1 G/DL
- LEUKOCYTE COUNT [1]: 17 x10E3/uL
- LYMPHOCYTE [1]: 91%
- MEAN CORPUSCULAR HEMOGLOBIN [1]: 24.83 pg
- MEAN CORPUSCULAR HEMOGLOBIN CONCENTRATION [1]: 39.73 G/DL
- MEAN CORPUSCULAR VOLUME [1]: 62.37 fL
- MONOCYTE [1]: 1.67%
- NEUTROPHIL [1]: 7.33%
- NUCLEATED RED BLOOD CELLS [1]: 0 /100WBC
- PLATELET COUNT [1]: 1288 x10E3/uL
- ALANINE AMINOTRANSFERASE [1]: 49.33 u/L
- ALBUMIN [1]: 4.37 G/DL
- ALKALINE PHOSPHATASE [1]: 314.33 u/L
- ASPARTATE AMINOTRANSFERASE [1]: 76.33 u/L
- BLOOD UREA NITROGEN [1]: 18 mg/dL
- CARBON DIOXIDE [1]: 25.33 mmol/L
- CHLORIDE [1]: 101 MEQ/L
- CHOLESTEROL [1]: 73 mg/dL
- CREATINE PHOSPHOKINASE [1]: 227.67 u/L
- CREATININE [1]: 0.16 mg/dL
- GLUCOSE [1]: 165.67 mg/dL
- LACTATE DEHYDROGENASE [1]: 181.67 u/L
- LIPASE [1]: 8.33 u/L
- PHOSPHORUS [1]: 12.87 mg/dL
- POTASSIUM [1]: 6.99 MEQ/L
- SODIUM [1]: 143.7 MEQ/L
- TOTAL BILIRUBIN [1]: 0.23 mg/dL
- TOTAL PROTEIN [1]: 6.03 G/DL
- URIC ACID [1]: 2.13 mg/dL
- ABSOLUTE BASOPHIL [2]: 0 CELLS/uL
- ABSOLUTE EOSINOPHIL [2]: 0 CELLS/uL
- ABSOLUTE LYMPHOCYTE [2]: 11801.33 CELLS/uL
- ABSOLUTE MONOCYTE [2]: 112 CELLS/uL
- ABSOLUTE SEGMENTED NEUTROPHIL [2]: 1053.33 CELLS/uL
- BASOPHIL [2]: 0%
- EOSINOPHIL [2]: 0%
- ERYTHROCYTE COUNT [2]: 5.54 x10E6/uL
- HEMATOCRIT [2]: 34.73%
- HEMOGLOBIN [2]: 13.73 G/DL
- LEUKOCYTE COUNT [2]: 12.97 x10E3/uL
- LYMPHOCYTE [2]: 90.33%
- MEAN CORPUSCULAR HEMOGLOBIN [2]: 24.8 pg
- MEAN CORPUSCULAR HEMOGLOBIN CONCENTRATION [2]: 39.53 G/DL
- MEAN CORPUSCULAR VOLUME [2]: 62.77 fL
- MONOCYTE [2]: 1%
- NEUTROPHIL [2]: 8.67%
- NUCLEATED RED BLOOD CELLS [2]: 0 /100WBC
- PLATELET COUNT [2]: 1166 x10E3/uL
- ALANINE AMINOTRANSFERASE [2]: 53.33 u/L
- ALBUMIN [2]: 4.3 G/DL
- ALKALINE PHOSPHATASE [2]: 390 u/L
- ASPARTATE AMINOTRANSFERASE [2]: 82 u/L
- BLOOD UREA NITROGEN [2]: 14.33 mg/dL
- CARBON DIOXIDE [2]: 23 mmol/L
- CHLORIDE [2]: 100.67 MEQ/L
- CHOLESTEROL [2]: 65.33 mg/dL
- CREATINE PHOSPHOKINASE [2]: 195 u/L
- CREATININE [2]: 0.18 mg/dL
- GLUCOSE [2]: 154.67 mg/dL
- LACTATE DEHYDROGENASE [2]: 119.33 u/L
- LIPASE [2]: 10.67 u/L
- PHOSPHORUS [2]: 12.87 mg/dL
- POTASSIUM [2]: 6.42 MEQ/L
- SODIUM [2]: 143.1 MEQ/L
- TOTAL BILIRUBIN [2]: 0.17 mg/dL
- TOTAL PROTEIN [2]: 5.93 G/DL
- URIC ACID [2]: 1.53 mg/dL
- ABSOLUTE BASOPHIL [3]: 0 CELLS/uL
- ABSOLUTE EOSINOPHIL [3]: 46 CELLS/uL
- ABSOLUTE LYMPHOCYTE [3]: 14960.67 CELLS/uL
- ABSOLUTE MONOCYTE [3]: 42.67 CELLS/uL
- ABSOLUTE SEGMENTED NEUTROPHIL [3]: 1217.33 CELLS/uL
- BASOPHIL [3]: 0%
- EOSINOPHIL [3]: 0.33%
- ERYTHROCYTE COUNT [3]: 5.65 x10E6/uL
- HEMATOCRIT [3]: 35.27%
- HEMOGLOBIN [3]: 14 G/DL
- LEUKOCYTE COUNT [3]: 16.27 x10E3/uL
- LYMPHOCYTE [3]: 91.67%
- MEAN CORPUSCULAR HEMOGLOBIN [3]: 24.83 pg
- MEAN CORPUSCULAR HEMOGLOBIN CONCENTRATION [3]: 39.7 G/DL
- MEAN CORPUSCULAR VOLUME [3]: 62.5 fL
- MONOCYTE [3]: 0.33%
- NEUTROPHIL [3]: 7.67%
- NUCLEATED RED BLOOD CELLS [3]: 0 /100WBC
- PLATELET COUNT [3]: 1315.33 x10E3/uL
- ALANINE AMINOTRANSFERASE [3]: 52 u/L
- ALBUMIN [3]: 4.3 G/DL
- ALKALINE PHOSPHATASE [3]: 327.33 u/L
- ASPARTATE AMINOTRANSFERASE [3]: 76.67 u/L
- BLOOD UREA NITROGEN [3]: 17.33 mg/dL
- CARBON DIOXIDE [3]: 27 mmol/L
- CHLORIDE [3]: 102 MEQ/L
- CHOLESTEROL [3]: 69 mg/dL
- CREATINE PHOSPHOKINASE [3]: 218 u/L
- CREATININE [3]: 0.16 mg/dL
- GLUCOSE [3]: 159.33 mg/dL
- LACTATE DEHYDROGENASE [3]: 121 u/L
- LIPASE [3]: 8.67 u/L
- PHOSPHORUS [3]: 12.4 mg/dL
- POTASSIUM [3]: 5.9 MEQ/L
- SODIUM [3]: 144.67 MEQ/L
- TOTAL BILIRUBIN [3]: 0.17 mg/dL
- TOTAL PROTEIN [3]: 6.07 G/DL
- URIC ACID [3]: 1.43 mg/dL
